We go through 48 molecules from US20130116227A1, “BIARYL AMIDE DERIVATIVE OR PHARMACEUTICALLY ACCEPTABLE SALT THEREOF” (DAINIPPON SUMITOMO PHARMA CO., LTD., priority 2010, published 2013).

Structures are written as SMILES.

The test addresses T1, aldosterone receptor (Rattus norvegicus, UniProt P22199).
T1 construct: centrifuged at 105,000 g for 30 minutes, and then a supernatant was collected as a renal soluble fraction; from tissue; host or cells: rat kidney (adrenalectomized rat), 105,000 g supernatant (cytosol)
T1 sequence (P22199 1-981): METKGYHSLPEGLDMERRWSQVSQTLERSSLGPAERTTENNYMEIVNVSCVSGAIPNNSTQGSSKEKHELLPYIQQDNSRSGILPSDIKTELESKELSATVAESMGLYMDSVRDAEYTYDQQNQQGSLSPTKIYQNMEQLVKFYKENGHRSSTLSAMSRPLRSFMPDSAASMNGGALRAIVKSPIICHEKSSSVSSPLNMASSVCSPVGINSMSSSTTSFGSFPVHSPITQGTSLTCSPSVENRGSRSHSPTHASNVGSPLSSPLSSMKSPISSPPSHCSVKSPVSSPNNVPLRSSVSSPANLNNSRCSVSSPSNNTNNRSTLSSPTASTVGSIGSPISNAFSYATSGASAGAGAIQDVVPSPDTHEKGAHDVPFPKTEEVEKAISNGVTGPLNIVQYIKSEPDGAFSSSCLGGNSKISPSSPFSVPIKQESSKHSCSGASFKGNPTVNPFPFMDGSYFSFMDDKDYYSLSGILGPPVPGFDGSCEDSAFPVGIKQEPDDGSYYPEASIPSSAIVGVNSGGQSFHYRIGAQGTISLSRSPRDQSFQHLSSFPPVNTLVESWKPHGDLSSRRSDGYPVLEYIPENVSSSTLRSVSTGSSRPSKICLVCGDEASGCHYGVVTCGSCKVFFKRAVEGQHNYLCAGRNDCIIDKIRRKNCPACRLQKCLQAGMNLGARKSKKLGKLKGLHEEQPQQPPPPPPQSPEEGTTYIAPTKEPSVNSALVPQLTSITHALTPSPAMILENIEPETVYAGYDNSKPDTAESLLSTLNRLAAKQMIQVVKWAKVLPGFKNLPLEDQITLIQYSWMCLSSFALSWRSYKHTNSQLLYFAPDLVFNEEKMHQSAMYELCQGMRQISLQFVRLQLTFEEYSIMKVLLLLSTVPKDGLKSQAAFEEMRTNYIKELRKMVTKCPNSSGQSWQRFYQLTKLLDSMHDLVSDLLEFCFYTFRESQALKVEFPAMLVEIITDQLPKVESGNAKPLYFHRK
The experiment in a line: Binding inhibition test for aldosterone receptor ([3H]aldosterone, rat renal soluble fraction). The note with it: [3H]aldosterone 2 nM, rat renal soluble fraction, in the presence of 2 μM RU-486, 4° C. about 18 hours; read-out: MR IC50. As for the experimental part: Binding Inhibition Test for Aldosterone Receptor
A rat was layed open in flank regions (on both sides) to remove both adrenal glands. After stitching up the incision, the rat was returnd to a breeding cage again. After removing the kidney from the rat reared for about 3 to 5 days, the kidney was homogenized in 0.1 M Tris-HCl, 0.25M sucrose, 0.1M Na2MoO4 and 2 mM DTT buffer solution (pH7.4). The resultant was centrifuged at 105,000 g for 30 minutes, and then a supernatant was collected as a renal soluble fraction.
The rat renal soluble fraction (0.5 to 1.5 mg), a labeled ligand [^3H] aldosterone (2 nM) and a test article were reacted in the presence of 2 μM RU-486 (glucocorticoid receptor antagonist) in 100 μL of total amounts at 4° C. for about 18 hours. Afterwards, to the reaction solution was added 50 μL of 5% dextran-coated activated charcoal, and the mixture was immingled, and then centrifuged at 3,000 g for 5 minutes. Then, a supernatant (100 μL) was collected and mixed with a liquid scintillator ACS-II (Amersham) (3.5 mL), and then analyzed its radioactivity by a liquid scintillation counter (manufactured by Packard, Tri Carb 2700TR). A non-specific binding was obtained by addition of 2 μM aldosterone to a reaction solution. […]
Binding inhibition rate (%)=100−{(B−N)/(B0−N)}×100
B: labeled ligand binding amounts in the presence of a test article and a labeled ligand
B0: labeled ligand binding amounts in the absence of a test article
N: labeled ligand binding amounts in the presence of excess aldosterone (2 μM)
Test example 1 was carried out for compounds obtained in the Examples.
As usually defined, the IC50 is the concentration that inhibits the measured activity by half. As to `COc1cc(C(=O)Nc2ccc(-c3ccccc3OC(F)(F)F)c(C)c2)ccc1S(N)(=O)=O` [Example 499], the IC50 was 1200 nM.
Then `COc1cc(C(=O)Nc2ccc(-c3ccccc3C(F)(F)F)c(COC3CCOCC3)c2)ccc1S(N)(=O)=O` [Example 410], with 520 nM; and `CCCOc1ccc(-c2ccc(NC(=O)c3ccc(S(N)(=O)=O)c(OC)c3)cc2CO)c(C(F)(F)F)c1` [Example 313], with 2200 nM.
Then `CS(=O)(=O)c1ccc(NC(=O)c2ccc(-c3ccccc3OC(F)(F)F)c(CN3CC[C@@H](F)C3)c2)cc1` [Example 510], with 280 nM.
Then `CCN(CC)c1cc(C(=O)Nc2ccc(S(N)(=O)=O)c(OC)c2)ccc1-c1ccccc1OC(F)(F)F` [Example 561], with 100 nM.
As to `CCNc1cc(C(=O)Nc2ccc(S(N)(=O)=O)c(OC)c2)ccc1-c1ccccc1C(F)(F)F` [Example 131], the IC50 amounted to 170 nM.
Then `Cn1ccc(CNCc2cc(C(=O)Nc3ccc(S(C)(=O)=O)cc3)ccc2-c2ccccc2OC(F)(F)F)n1` [Example 153], with 470 nM.
On to `CCCOc1ncccc1-c1ccc(C(=O)Nc2ccc(S(N)(=O)=O)c(OC)c2)cc1CNCC(F)F` [Example 481], for which the IC50 is under 10000 nM.
Then `CCN(CC)Cc1cc(C(=O)Nc2ccc(S(C)(=O)=O)cc2)ccc1-c1ccccc1OC(F)(F)F` [Example 159], with 290 nM.
To `COc1cc(NC(=O)c2ccc(-c3ccc(F)cc3C(F)(F)F)c(CNCC(F)F)c2)ccc1S(N)(=O)=O` [Example 486] belongs under 10000 nM; to `COc1cc(C(=O)Nc2ccc(-c3ccccc3C(F)(F)F)c(CN3CCC(F)CC3)c2)ccc1S(N)(=O)=O` [Example 392], 450 nM; to `COc1cc(C(=O)Nc2ccc(S(N)(=O)=O)c(OC)c2)ccc1-c1ccccc1C(F)(F)F` [Example 59], 260 nM.
Turning to `COc1cc(NC(=O)c2ccc(-c3cccc4cccnc34)c(C)c2)ccc1S(N)(=O)=O` [Example 537], the IC50 is 5400 nM.
Turning to `CCCN(CCC)Cc1cc(C(=O)Nc2ccc(S(C)(=O)=O)cc2)ccc1-c1ccccc1OC(F)(F)F` [Example 505], the IC50 was 290 nM.
Then `COc1cc(C(=O)Nc2ccc(-c3ccccc3C(F)(F)F)c(CNCC(F)F)c2)ccc1S(N)(=O)=O` [Example 389], with 560 nM; and `CS(=O)(=O)c1ccc(NC(=O)c2ccc(-c3ccccc3OC(F)(F)F)c(CN3CCCOCC3)c2)cc1` [Example 163], with under 10000 nM; and `CS(=O)(=O)c1ccc(NC(=O)c2ccc(-c3ccccc3OC(F)(F)F)c(CNCC3CCCCC3)c2)cc1` [Example 221], with under 10000 nM.
On to `CCN(CC)c1cc(C(=O)Nc2ccc(S(N)(=O)=O)cc2)ccc1-c1ccccc1OC(F)(F)F` [Example 265], for which the IC50 came out at 360 nM.
Turning to `Cn1ccnc1CNCc1cc(C(=O)Nc2ccc(S(C)(=O)=O)cc2)ccc1-c1ccccc1OC(F)(F)F` [Example 218], the IC50 was 370 nM.
As for `COc1cc(NC(=O)c2ccc(-c3ccc(F)cc3Cl)c(CNCC(F)F)c2)ccc1S(N)(=O)=O` [Example 426], the IC50 worked out at 580 nM.
For `COc1cc(C(=O)Nc2ccc(-c3ccccc3C(F)(F)F)c(Cn3nccn3)c2)ccc1S(N)(=O)=O` [Example 407], the IC50 worked out at 260 nM.
To `COc1cc(NC(=O)c2ccc(-c3ccccc3C(F)(F)F)c(COC(C)=O)c2)ccc1S(N)(=O)=O` [Example 68] belongs 210 nM; to `CS(=O)(=O)c1ccc(NC(=O)c2ccc(-c3ccccc3OC(F)(F)F)c(CN3CC(F)(F)C3)c2)cc1` [Example 171], under 10000 nM.
As to `CS(=O)(=O)c1ccc(NC(=O)c2ccc(-c3ccccc3OC(F)(F)F)c(CNC3CC3)c2)cc1` [Example 513], the IC50 was determined as 700 nM.
Then `Cn1nccc1CNCc1cc(C(=O)Nc2ccc(S(C)(=O)=O)cc2)ccc1-c1ccccc1OC(F)(F)F` [Example 520], with 2900 nM; and `COc1cc(NC(=O)c2ccc(-c3cccc(Cl)c3Cl)c(CNCC(F)F)c2)ccc1S(N)(=O)=O` [Example 454], with under 10000 nM.
`CCOc1cc(C(=O)Nc2ccc(S(N)(=O)=O)c(OC)c2)ccc1-c1ccccc1C(F)(F)F` [Example 60]: the IC50 turned out to be 200 nM.
To `COc1cc(NC(=O)c2ccc(-c3ccccc3OC(F)(F)F)c(CNC3=NCCO3)c2)ccc1S(N)(=O)=O` [Example 309] belongs 230 nM; to `COc1cc(NC(=O)c2ccc(-c3ccc(Cl)cc3C(F)(F)F)c(CNCC(F)F)c2)ccc1S(N)(=O)=O` [Example 474], under 10000 nM.
To `COc1cc(NC(=O)c2ccc(-c3ccccc3C(F)(F)F)c(CNC(C)C)c2)ccc1S(N)(=O)=O` [Example 85] belongs 540 nM; to `COc1cc(NC(=O)c2ccc(-c3ccccc3C(F)(F)F)c(OCCO)c2)ccc1S(N)(=O)=O` [Example 121], 520 nM; to `CCc1ccccc1-c1ccc(C(=O)Nc2ccc(S(N)(=O)=O)c(OC)c2)cc1CO` [Example 126], 310 nM.
Regarding `COc1cc(NC(=O)c2ccc(-c3cccnc3C3CCC3)c(C)c2)ccc1S(N)(=O)=O` [Example 282], the IC50 was 730 nM.
For `CS(=O)(=O)c1ccc(NC(=O)c2ccc(-c3ccccc3OC(F)(F)F)c(CNCc3ccccc3)c2)cc1` [Example 180], the IC50 turned out to be 280 nM.
Turning to `COc1cc(NC(=O)c2ccc(-c3cc(F)ccc3Cl)c(CNCC(F)F)c2)ccc1S(N)(=O)=O` [Example 457], the IC50 was under 10000 nM.
In the case of `CS(=O)(=O)c1ccc(NC(=O)c2ccc(-c3ccccc3OC(F)(F)F)c(CNC[C@H]3CCCO3)c2)cc1` [Example 147], the IC50 was under 10000 nM.
For the molecule `CCOc1ncccc1-c1ccc(C(=O)Nc2ccc(S(N)(=O)=O)c(OC)c2)cc1CNCC(F)F` [Example 463], the IC50 was under 10000 nM.
On to `CS(=O)(=O)c1ccc(NC(=O)c2ccc(-c3ccccc3OC(F)(F)F)c(CNCCOc3ccccc3)c2)cc1` [Example 190], for which the IC50 is under 10000 nM.
For `COc1cc(F)ccc1-c1ccc(C(=O)Nc2ccc(S(N)(=O)=O)c(OC)c2)cc1CNCC(F)F` [Example 593], the IC50 is under 10000 nM.
To `COc1cc(NC(=O)c2ccc(-c3ccccc3C(F)(F)F)c(COCC3CCCN(C)C3)c2)ccc1S(N)(=O)=O` (stereo not drawn) [Example 99] belongs 2000 nM; to `COc1cc(NC(=O)c2ccc(-c3ccccc3C3CC3)c(CNCC(F)F)c2)ccc1S(N)(=O)=O` [Example 448], under 10000 nM; to `COCCNCc1cc(NC(=O)c2ccc(S(N)(=O)=O)c(OC)c2)ccc1-c1ccccc1OC(F)(F)F` [Example 364], 540 nM.
Then `CS(=O)(=O)c1ccc(NC(=O)c2ccc(-c3ccccc3OC(F)(F)F)c(CN3CCC(F)(F)C3)c2)cc1` [Example 142], with 420 nM; and `COc1cc(NC(=O)c2ccc(-c3ncccc3C(F)(F)F)c(C)c2)ccc1S(N)(=O)=O` [Example 279], with 4100 nM; and `COc1cc(C(=O)Nc2ccc(-c3ccccc3C(F)(F)F)c(CNCC(F)(F)F)c2)ccc1S(N)(=O)=O` [Example 528], with under 10000 nM.
To `COc1cc(NC(=O)c2ccc(-c3ccc(F)cc3C3CC3)c(CNCC(F)F)c2)ccc1S(N)(=O)=O` [Example 470] belongs under 10000 nM; to `COc1cc(NC(=O)c2ccc(-c3ccccc3C(F)(F)F)c(CN3CCOCC3)c2)ccc1S(N)(=O)=O` [Example 79], 320 nM.
In the case of `COc1cc(NC(=O)c2ccc(-c3cccnc3-c3cccnc3)c(C)c2)ccc1S(N)(=O)=O` [Example 531], the IC50 is under 10000 nM.
